Experimental data published in US11896706B2, “Composition for preventing hair loss or promoting hair growth, comprising, as active ingredient, mixed extract of cucumber, eggplant and snail extracts as active ingredient” (OGADAL INC., priority 2020, dated 2024).
Marks after values point to notes of the source that are not given here.

Legend:
[1] = tested on: insulin-like growth factor 1 (IGF-1); experiment: RT-PCR expression of hair-related gene IGF-1 in dermal papilla cells; type: cell-based; conditions: 1 μg/mL minoxidil, 18 hours
Method: (§1) RT-PCR (reverse transcription polymerase chain reaction) was conducted in order to investigate the effect on the expression of hair-related genes, insulin-like growth factor 1 (IGF-1), hepatocyte growth factor (HGF) and keratinocyte growth factor (KGF). Dermal papilla cells were seeded onto a 100-mm cell culture dish at a density of 80% and then cultured for 24 hours at 37° C. in a 5% CO2 incubator. DMEM (Dulbecco's modified Eagle's medium, BRL, USA) containing 10% bovine serum was used as a medium. After adding 100 μg/mL of a sample (Examples 1-1, 1-2, 1-3 and 1-4; Comparative Examples 1-1, 1-2 and 1-3; Examples 2-1, 2-2 and 2-3) or 1 μg/mL minoxidil as a positive control group, the cells were cultured for 18 hours and RNA was isolated by adding 1 mL of Trizol (Invitrogen, USA) according to the Promega's method. After quantifying RNA at 260 nm using a UV detector, RT-PCR was conducted. The RT-PCR was conducted using a RT-PCR kit (All-in-one RT-PCR kit, SuperBio, Korea) under the condition of 40 cycles of reverse transcription at 50° C. for 30 minutes followed by inactivation of reverse transcriptase at 96° C. for 3 minutes, 94° C. for 30 seconds, 58° C. for 30 seconds and 72° C. for 1 minute. The result was represented as percentage (%) of expression relative to the negative control group (Table 3).

[2] = tested on: hepatocyte growth factor (HGF); experiment: RT-PCR expression of hair-related gene HGF in dermal papilla cells; type: cell-based; conditions: 1 μg/mL minoxidil, 18 hours
Method: as §1

[3] = tested on: C57BL/6 mice depilated on the back; experiment: Animal experiment for hair growth-promoting effect in depilated mice; type: in vivo, mouse; conditions: 5 wt % minoxidil, 0.2 mL topical once a day
Method: The hair growth-promoting effect of the composition of the present disclosure was investigated using C57BL/6 mice. 49- to 51-day-old C57BL/6N mice, in the second […], were depilated completely on the back using wax. While applying 0.2 mL of Example 2-1 or 2-3 at a solid content of 1 wt % or 20 wt %, or 5 wt % minoxidil as a positive control group, diluted in water, once a day for 16 days, hair-growing effect was monitored. Distilled water was used as a negative control group. The hair growth index with time was evaluated by the 3-point scale (see Table 4).

[4] = tested on: keratinocyte growth factor (KGF); experiment: RT-PCR expression of hair-related gene KGF in dermal papilla cells; type: cell-based; conditions: 1 μg/mL minoxidil, 18 hours
Method: as §1

## Nc1cc(N2CCCCC2)nc(N)[n+]1[O-] [Minoxidil, minoxidil]
[1]
  IGF-1 expression relative to the negative control group: 119.0%**
[2]
  HGF expression relative to the negative control group: 134.6%**
[3]; Day 0
  Hair growth index (3-point scale): 0 points
[3]; Day 12
  Hair growth index (3-point scale): 1.22 ± 0.26 points
[3]; Day 16
  Hair growth index (3-point scale): 2.66 ± 0.23 points
[4]
  KGF expression relative to the negative control group: 120.2%**
